Experimental data taken from ChEMBL document CHEMBL1141381, “Alkynylpyrimidine amide derivatives as potent, selective, and orally active inhibitors of Tie-2 kinase” (J Med Chem, 2007).
pIC50: −log10 of the molar value.

Legend:
[1] = Half life in Sprague-Dawley rat at 2 mg/kg, iv; type: ADME, organism-based; design: dose 2 mg/kg, route intravenous; settings: in vivo
[2] = AUC (0-infinity) in Sprague-Dawley rat at 5 mg/kg, po; type: ADME, organism-based; design: time infinity, dose 5 mg/kg, route oral; settings: plasma
[3] = Volume of distribution in Sprague-Dawley rat at 2 mg/kg, iv; type: ADME, organism-based; design: dose 2 mg/kg, route intravenous; settings: in vivo, read-out: Vss
[4] = Clearance in Sprague-Dawley rat at 2 mg/kg, iv; type: ADME, organism-based; design: dose 2 mg/kg, route intravenous; settings: in vivo
[5] = Oral bioavailability in Sprague-Dawley rat at 5 mg/kg, po; type: ADME, organism-based; settings: in vivo
[6] = target: Vascular endothelial growth factor receptor 2 (Homo sapiens, UniProt P35968)
Sequence of Vascular endothelial growth factor receptor 2 (P35968 whole entry): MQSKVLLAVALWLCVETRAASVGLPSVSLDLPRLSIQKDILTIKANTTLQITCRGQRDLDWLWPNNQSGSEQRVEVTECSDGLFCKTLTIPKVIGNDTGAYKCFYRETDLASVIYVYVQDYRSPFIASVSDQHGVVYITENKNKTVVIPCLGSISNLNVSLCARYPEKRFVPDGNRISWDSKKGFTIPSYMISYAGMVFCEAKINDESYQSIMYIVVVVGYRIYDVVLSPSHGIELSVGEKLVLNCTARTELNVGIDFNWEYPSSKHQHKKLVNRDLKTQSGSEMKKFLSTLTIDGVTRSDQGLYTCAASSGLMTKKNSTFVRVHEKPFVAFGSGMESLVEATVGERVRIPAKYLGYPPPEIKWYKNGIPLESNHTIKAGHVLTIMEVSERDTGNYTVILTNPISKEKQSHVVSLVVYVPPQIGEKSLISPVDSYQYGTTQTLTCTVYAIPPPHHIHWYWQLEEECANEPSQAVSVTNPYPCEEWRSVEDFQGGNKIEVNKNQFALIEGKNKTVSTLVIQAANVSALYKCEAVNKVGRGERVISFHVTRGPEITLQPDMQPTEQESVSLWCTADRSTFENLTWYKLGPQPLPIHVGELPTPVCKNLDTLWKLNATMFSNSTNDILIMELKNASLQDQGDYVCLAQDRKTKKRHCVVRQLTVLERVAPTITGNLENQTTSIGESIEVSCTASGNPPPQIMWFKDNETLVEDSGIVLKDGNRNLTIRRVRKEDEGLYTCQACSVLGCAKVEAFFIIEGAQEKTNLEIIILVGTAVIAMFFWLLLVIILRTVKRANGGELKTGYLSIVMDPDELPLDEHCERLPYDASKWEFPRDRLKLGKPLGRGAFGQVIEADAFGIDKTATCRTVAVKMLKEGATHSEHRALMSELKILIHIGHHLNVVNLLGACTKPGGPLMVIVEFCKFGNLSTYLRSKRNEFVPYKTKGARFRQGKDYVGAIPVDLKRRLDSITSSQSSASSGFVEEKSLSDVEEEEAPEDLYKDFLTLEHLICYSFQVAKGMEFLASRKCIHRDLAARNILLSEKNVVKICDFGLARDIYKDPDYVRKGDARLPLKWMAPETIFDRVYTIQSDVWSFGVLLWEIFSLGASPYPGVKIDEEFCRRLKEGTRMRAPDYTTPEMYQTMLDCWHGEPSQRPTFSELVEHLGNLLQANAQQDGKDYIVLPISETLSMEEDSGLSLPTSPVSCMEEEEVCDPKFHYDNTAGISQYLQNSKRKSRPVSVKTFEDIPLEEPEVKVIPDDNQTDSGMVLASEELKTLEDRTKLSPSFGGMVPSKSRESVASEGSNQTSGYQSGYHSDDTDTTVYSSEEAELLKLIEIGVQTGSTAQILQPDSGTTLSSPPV

[7] = target: Tyrosine-protein kinase Lck (Homo sapiens, UniProt P06239)
Sequence of Tyrosine-protein kinase Lck (P06239 whole entry): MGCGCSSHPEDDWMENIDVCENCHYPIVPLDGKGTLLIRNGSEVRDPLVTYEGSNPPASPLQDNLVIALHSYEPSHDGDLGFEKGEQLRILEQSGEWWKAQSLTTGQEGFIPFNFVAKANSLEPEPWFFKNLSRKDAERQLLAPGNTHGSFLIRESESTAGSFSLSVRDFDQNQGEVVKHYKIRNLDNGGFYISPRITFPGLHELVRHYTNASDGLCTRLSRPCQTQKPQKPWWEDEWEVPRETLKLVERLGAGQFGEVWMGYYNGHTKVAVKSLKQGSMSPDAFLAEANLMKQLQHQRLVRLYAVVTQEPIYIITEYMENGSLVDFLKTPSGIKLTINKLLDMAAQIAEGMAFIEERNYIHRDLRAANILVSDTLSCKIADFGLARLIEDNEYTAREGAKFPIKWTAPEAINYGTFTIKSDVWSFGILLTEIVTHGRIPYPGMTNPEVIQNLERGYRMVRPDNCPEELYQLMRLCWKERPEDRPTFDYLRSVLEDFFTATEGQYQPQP

[8] = target: Tyrosine-protein kinase Fes/Fps (Homo sapiens, UniProt P07332); assay: Inhibition of Fes
Sequence of Tyrosine-protein kinase Fes/Fps (P07332 whole entry): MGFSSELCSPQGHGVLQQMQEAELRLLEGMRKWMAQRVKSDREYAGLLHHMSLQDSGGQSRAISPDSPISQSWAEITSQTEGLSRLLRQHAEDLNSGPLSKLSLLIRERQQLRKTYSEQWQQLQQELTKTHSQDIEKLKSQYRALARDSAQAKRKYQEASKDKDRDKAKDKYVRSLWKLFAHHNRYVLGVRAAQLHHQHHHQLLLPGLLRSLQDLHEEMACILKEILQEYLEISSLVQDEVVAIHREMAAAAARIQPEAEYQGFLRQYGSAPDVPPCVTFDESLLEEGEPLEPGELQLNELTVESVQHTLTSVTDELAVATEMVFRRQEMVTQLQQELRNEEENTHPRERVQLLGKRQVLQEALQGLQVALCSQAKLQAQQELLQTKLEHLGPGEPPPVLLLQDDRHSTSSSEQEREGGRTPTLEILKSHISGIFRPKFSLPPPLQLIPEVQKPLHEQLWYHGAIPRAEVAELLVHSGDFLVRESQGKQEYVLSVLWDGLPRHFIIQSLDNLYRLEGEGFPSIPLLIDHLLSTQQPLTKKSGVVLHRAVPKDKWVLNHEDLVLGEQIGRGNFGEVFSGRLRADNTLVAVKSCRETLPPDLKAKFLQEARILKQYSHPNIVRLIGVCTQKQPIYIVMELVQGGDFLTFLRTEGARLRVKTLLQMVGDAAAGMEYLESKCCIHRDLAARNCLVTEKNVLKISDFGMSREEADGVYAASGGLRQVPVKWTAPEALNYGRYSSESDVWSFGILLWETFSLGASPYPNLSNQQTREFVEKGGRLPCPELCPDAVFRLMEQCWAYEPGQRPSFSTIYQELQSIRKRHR

[9] = target: Mast/stem cell growth factor receptor Kit (Homo sapiens, UniProt P10721); assay: Inhibition of c-Kit
Angiopoietin-1 receptor [10] = target: T1, Angiopoietin-1 receptor (Homo sapiens, UniProt Q02763)
T1 sequence (Q02763 whole entry): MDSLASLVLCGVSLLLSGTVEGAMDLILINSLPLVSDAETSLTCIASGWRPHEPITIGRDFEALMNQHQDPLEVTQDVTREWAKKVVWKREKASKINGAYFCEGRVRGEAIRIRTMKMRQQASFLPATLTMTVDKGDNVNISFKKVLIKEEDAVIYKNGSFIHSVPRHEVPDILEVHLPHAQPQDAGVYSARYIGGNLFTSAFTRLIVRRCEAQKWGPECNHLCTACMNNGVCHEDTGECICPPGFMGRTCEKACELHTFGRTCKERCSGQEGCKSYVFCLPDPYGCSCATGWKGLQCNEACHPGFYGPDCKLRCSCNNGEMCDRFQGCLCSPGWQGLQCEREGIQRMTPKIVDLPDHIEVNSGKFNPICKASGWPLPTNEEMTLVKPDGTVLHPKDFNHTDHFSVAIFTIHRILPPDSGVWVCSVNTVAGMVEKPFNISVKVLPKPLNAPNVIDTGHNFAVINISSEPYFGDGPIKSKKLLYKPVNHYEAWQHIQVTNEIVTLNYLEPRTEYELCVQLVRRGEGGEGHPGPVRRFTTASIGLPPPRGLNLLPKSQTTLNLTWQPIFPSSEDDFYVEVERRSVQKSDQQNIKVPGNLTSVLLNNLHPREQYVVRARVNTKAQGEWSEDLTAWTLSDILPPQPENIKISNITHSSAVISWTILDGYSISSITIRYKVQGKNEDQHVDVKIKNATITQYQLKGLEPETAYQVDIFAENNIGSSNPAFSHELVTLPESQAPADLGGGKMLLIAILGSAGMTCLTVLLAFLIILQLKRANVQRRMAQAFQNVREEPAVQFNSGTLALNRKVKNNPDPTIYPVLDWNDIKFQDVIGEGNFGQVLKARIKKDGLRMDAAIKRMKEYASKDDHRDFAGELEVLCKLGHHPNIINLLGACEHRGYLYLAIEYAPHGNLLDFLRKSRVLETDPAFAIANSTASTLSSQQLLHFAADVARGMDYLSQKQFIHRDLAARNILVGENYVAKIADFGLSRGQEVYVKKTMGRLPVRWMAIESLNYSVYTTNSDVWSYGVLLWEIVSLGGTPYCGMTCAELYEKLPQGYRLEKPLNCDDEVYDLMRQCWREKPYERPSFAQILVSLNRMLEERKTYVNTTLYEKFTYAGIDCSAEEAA
Description: Inhibition of TIE2 by HTRF assay

[11] = target: High affinity nerve growth factor receptor (Homo sapiens, UniProt P04629); assay: Inhibition of TrkA
[12] = target: T2, Tyrosine-protein kinase JAK3 (Homo sapiens, UniProt P52333); assay: Inhibition of Jak3
T2 sequence (P52333 whole entry): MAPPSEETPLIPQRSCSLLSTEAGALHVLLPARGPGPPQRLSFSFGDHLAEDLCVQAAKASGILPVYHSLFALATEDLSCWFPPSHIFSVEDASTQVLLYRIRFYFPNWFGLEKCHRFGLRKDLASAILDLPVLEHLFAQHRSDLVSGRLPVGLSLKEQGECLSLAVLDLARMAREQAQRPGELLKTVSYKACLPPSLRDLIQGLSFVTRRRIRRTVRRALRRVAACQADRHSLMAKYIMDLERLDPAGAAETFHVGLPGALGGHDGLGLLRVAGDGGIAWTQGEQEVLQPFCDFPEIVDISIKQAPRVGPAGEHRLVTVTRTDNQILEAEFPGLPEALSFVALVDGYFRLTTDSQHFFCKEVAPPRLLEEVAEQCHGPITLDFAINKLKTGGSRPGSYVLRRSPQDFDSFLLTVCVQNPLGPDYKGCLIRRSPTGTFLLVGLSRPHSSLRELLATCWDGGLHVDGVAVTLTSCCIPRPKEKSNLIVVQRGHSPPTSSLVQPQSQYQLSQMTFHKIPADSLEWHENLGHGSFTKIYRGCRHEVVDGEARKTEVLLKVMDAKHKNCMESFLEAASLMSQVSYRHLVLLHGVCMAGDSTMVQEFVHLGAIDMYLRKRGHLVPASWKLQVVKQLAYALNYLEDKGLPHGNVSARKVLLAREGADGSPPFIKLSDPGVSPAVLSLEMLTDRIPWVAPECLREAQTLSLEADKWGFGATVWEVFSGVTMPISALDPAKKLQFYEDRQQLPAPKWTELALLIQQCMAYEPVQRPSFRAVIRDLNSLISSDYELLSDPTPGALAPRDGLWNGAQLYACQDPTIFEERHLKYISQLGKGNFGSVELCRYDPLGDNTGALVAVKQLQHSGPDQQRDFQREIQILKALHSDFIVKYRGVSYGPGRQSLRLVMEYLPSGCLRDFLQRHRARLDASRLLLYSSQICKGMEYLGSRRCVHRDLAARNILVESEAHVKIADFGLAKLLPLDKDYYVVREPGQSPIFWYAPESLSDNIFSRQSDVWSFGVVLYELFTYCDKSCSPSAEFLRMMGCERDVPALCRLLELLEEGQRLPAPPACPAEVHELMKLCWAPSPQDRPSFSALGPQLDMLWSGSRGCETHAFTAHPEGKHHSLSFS

Mus musculus = assay: Plasma concentration in CD1 NU/NU mouse at 10 mg/kg; type: ADME, organism-based; design: dose 10 mg/kg; settings: in vivo
Insulin receptor = Insulin receptor (Homo sapiens, UniProt P06213); assay: Inhibition of INSR
[13] = target: Angiopoietin-1 receptor (Mus musculus) (UniProt Q02858); assay: Inhibition of angiopoietin-1-induced TIE2 phosphorylation in CD1 NU/NU mouse at 10 mg/kg; type: functional, organism-based; design: dose 10 mg/kg
Sequence of Angiopoietin-1 receptor (Mus musculus) (Q02858 whole entry): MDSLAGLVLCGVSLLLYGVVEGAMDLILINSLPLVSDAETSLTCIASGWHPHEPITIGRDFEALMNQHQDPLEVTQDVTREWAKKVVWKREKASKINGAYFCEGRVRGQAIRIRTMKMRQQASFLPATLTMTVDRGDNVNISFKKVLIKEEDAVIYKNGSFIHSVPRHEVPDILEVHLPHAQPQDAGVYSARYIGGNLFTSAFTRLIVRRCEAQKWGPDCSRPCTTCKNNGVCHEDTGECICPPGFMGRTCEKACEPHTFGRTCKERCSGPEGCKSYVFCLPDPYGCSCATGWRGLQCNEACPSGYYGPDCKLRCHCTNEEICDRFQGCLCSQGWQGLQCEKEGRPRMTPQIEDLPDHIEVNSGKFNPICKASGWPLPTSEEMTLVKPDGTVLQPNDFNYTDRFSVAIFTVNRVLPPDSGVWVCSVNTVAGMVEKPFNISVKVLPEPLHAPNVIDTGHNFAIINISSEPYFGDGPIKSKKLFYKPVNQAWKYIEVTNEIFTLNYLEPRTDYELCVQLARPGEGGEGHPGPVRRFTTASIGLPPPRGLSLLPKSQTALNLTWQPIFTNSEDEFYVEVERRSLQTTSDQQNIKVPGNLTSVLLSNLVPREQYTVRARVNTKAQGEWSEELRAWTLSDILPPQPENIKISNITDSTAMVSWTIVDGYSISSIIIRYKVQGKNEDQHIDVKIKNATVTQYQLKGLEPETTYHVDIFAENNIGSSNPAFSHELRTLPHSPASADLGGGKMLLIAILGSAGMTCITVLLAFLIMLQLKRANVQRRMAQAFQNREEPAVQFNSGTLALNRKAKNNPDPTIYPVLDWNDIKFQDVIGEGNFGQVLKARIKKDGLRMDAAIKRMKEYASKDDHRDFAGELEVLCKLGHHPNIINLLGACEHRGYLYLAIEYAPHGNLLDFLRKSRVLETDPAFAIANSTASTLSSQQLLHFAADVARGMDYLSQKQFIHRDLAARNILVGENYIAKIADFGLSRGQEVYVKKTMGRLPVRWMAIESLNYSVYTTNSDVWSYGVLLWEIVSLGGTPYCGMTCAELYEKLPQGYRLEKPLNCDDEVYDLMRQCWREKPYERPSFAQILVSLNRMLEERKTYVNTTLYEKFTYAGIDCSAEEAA

[14] = target: T3, Tyrosine-protein kinase ITK/TSK (Homo sapiens, UniProt Q08881); assay: Inhibition of ITK
T3 sequence (Q08881 whole entry): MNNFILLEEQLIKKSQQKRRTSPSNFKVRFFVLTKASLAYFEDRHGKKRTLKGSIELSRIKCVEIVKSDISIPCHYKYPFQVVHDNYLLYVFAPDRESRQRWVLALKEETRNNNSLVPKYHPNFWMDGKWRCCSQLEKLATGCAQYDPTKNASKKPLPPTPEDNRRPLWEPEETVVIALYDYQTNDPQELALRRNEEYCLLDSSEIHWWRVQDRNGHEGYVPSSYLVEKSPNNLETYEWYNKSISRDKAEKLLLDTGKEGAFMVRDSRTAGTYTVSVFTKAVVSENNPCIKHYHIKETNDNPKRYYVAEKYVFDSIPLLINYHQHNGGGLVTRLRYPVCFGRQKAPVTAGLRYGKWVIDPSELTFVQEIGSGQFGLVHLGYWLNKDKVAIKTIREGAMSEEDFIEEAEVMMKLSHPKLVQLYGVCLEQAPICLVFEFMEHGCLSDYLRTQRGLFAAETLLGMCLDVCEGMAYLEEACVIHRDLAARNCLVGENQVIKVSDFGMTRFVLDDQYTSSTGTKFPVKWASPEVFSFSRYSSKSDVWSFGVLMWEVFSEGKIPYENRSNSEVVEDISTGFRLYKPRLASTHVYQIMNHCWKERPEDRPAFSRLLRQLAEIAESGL

[15] = target: Tyrosine-protein kinase JAK1 (Homo sapiens, UniProt P23458); assay: Inhibition of Jak1
[16] = target: Angiopoietin-1 receptor (Mus musculus) (UniProt Q02858); assay: Inhibition of angiopoietin-1-induced TIE2 phosphorylation in CD1 NU/NU mouse; type: functional
[17] = target: Tyrosine-protein kinase Lyn (Homo sapiens, UniProt P07948); assay: Inhibition of Lyn
Angiopoietin-1 receptor [18] = target: T1, Angiopoietin-1 receptor; assay: Inhibition of Ang1-stimulated TIE2 phosphorylation in EA.hy 926 endothelial cell line; type: functional, cell-based
Ephrin type-B receptor 4 = target: T4, Ephrin type-B receptor 4 (Homo sapiens, UniProt P54760); assay: Inhibition of EpHB4
T4 sequence (P54760 whole entry): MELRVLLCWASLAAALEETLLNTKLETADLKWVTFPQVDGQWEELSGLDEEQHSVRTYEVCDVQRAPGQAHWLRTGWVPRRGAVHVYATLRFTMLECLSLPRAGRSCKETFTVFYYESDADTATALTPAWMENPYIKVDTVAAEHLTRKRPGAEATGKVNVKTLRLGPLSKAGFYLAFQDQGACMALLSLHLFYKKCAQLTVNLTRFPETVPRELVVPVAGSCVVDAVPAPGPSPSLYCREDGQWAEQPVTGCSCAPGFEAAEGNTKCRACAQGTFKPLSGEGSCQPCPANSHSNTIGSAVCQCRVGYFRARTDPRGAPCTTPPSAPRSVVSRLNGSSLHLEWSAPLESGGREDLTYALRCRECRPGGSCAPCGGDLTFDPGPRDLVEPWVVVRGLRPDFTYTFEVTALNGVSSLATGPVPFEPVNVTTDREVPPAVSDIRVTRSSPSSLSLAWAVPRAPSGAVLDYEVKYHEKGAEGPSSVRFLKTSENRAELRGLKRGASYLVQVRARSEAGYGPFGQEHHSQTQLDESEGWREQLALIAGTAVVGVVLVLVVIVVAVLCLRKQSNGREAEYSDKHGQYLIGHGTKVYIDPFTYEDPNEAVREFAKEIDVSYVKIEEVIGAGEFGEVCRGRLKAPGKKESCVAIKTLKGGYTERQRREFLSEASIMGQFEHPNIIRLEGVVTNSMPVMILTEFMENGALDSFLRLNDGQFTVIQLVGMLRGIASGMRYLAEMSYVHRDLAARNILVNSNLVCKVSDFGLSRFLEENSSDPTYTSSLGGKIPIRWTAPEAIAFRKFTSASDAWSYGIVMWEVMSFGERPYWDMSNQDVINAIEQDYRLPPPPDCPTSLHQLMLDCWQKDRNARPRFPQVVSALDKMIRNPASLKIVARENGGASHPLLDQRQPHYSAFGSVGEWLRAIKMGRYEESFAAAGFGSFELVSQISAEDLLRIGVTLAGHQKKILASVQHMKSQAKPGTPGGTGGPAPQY

[19] = target: Tyrosine-protein kinase CSK (Homo sapiens, UniProt P41240); assay: Inhibition of CSK
[20] = target: Mitogen-activated protein kinase 14 (Homo sapiens, UniProt Q16539); assay: Inhibition of p38alpha
[21] = target: Tyrosine-protein kinase Fgr (Homo sapiens, UniProt P09769); assay: Inhibition of FGR
[22] = Plasma protein binding in CD1 NU/NU mouse; type: ADME, cell-free; settings: read-out: PPB (converted)
[23] = target: Tyrosine-protein kinase JAK2 (Homo sapiens, UniProt O60674); assay: Inhibition of Jak2
[24] = target: Hepatocyte growth factor receptor (Homo sapiens, UniProt P08581); assay: Inhibition of c-Met

| SMILES | half-life [1] [h] | AUC(0-inf) [2] [ng·h/mL] | Vd [3] [L/kg] | clearance [4] [mL/min/kg] | bioavailability [5] [%] | pIC50 [6] | pIC50 [7] | pIC50 (Angiopoietin-1 receptor [10]) | also measured |
| --- | --- | --- | --- | --- | --- | --- | --- | --- | --- |
| Cc1ccc(C(=O)Nc2cccc(C(F)(F)F)c2)cc1C#Cc1cnc2[nH]cnc2c1 | – | – | – | – | – | > 9.00 | > 9.00 | – | – |
| CN(C)[C@H]1CCCN(c2ccc(C(F)(F)F)cc2NC(=O)c2cc(C#Cc3cnc(N)nc3)ccc2F)C1 | 7.9 | 800 | 11.8 | 40 | 39 | – | – | 8.30 | pIC50 [8]: 6.04; pIC50 [9]: 5.55; pIC50 [11]: 7.74; pIC50 [12]: 5.77; concentration (Mus musculus): 1660 nM; pIC50 (Insulin receptor): 5.54; inhibition [13]: 50%; pIC50 [14]: < 5.30; pIC50 [15]: 5.89; Activity [16]: Dose-dependent effect; pIC50 [17]: 6.74; pIC50 (Angiopoietin-1 receptor [18]): 8.10; pIC50 (Ephrin type-B receptor 4): 6.54; pIC50 [19]: 5.74; pIC50 [20]: < 5.08; pIC50 [21]: 7.37; fraction unbound [22]: 0.021; pIC50 [23]: 6.26; pIC50 [24]: < 5.17 |
| CN(C)[C@@H]1CCCN(c2ccc(C(F)(F)F)cc2NC(=O)c2cc(C#Cc3cnc(N)nc3)ccc2F)C1 | – | – | – | – | – | – | – | 7.36 | pIC50 (Angiopoietin-1 receptor [18]): 7.01 |
| Cc1ccc(C(=O)Nc2cccc(C(F)(F)F)c2)cc1-c1ccc2nc(N)ncc2c1 | – | – | – | – | – | – | > 9.00 | 9.00 | – |

Now from value to molecule, other results behind:

| half-life [1] [h] | AUC(0-inf) [2] [ng·h/mL] | Vd [3] [L/kg] | clearance [4] [mL/min/kg] | bioavailability [5] [%] | pIC50 [6] | pIC50 [7] | pIC50 (Angiopoietin-1 receptor [10]) | SMILES | also measured |
| --- | --- | --- | --- | --- | --- | --- | --- | --- | --- |
| 11.4 | 9300 | 4.6 | 5.33 | 51 | – | – | – | Nc1ncc(C#Cc2ccc(F)c(C(=O)Nc3cc(C(F)(F)F)ccc3N3CCC[C@H](N)C3)c2)cn1 | – |
| – | – | – | – | – | < 6.00 | – | – | Cc1ccc(C(=O)Nc2cc(C(F)(F)F)ccc2N2CCCCC2)cc1C#Cc1cnc(N)nc1 | – |
| 10.6 | 18600 | 2.2 | 2.5 | 54 | – | – | – | CN[C@H]1CCCN(c2ccc(C(F)(F)F)cc2NC(=O)c2cc(C#Cc3cnc(N)nc3)ccc2F)C1 | – |
| – | – | – | – | – | > 9.00 | – | – | Nc1ncc(C#Cc2cccc(C(=O)Nc3cccc(C(F)(F)F)c3)c2)cn1 | – |
| – | – | – | – | – | – | < 4.60 | – | COc1ccc(C#Cc2cnc(N)nc2)cc1C(=O)Nc1cc(C(F)(F)F)ccc1N1CCCCC1 | – |
| – | – | – | – | – | < 6.00 | – | – | Nc1ncc(C#Cc2cccc(C(=O)Nc3cc(C(F)(F)F)ccc3N3CCCCC3)c2)cn1 | – |
